# From patent publication US11535630B2, “Apelin receptor (APJ) agonists and uses thereof” (Research Triangle Institute, priority 2015, dated 2022)
# Like-named read-outs stand apart in the source and are kept apart here.
# Target: T1, apelin receptor (APJ) (Homo sapiens, UniProt P35414)
# T1 sequence (P35414 1-380): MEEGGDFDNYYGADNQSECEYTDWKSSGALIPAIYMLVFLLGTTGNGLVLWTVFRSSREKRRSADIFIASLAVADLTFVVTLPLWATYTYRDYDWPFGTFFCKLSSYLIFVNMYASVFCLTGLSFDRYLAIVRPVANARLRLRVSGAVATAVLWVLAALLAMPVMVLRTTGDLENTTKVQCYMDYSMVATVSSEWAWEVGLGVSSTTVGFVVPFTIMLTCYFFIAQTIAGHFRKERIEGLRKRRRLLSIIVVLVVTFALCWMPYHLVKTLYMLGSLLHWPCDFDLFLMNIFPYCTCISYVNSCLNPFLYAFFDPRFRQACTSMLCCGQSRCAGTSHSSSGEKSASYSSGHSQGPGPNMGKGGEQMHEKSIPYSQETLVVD
# Assay: In vitro apelin agonist activity (methods of Giddings et al., Apelin-13 as positive control)
# Assay type: cell-based
# Details: in vitro apelin agonist activity, methods of Giddings et al., Apelin-13 as positive control
# Excerpt: Characterization of the Apelin Agonist Activity of the Compounds
# 1:39-47, the contents of which are hereby incorporated by reference in its entirety. Using the methods described in Giddings et al. and Apelin-13 as a positive control.
EC50 (read-out: EC50 (nM) Ave) [nM],Compound,EC50 (EC50 (nM) Ave) [nM]
,"O=C(C[C@H](CCN1CCOCC1)NC(=O)c1cc(-c2ccccc2C(F)(F)F)n(C2CCCC2)n1)NC1CCC1 [compound 491, (3S)-N-cyclobutyl-3-({1-cyclopentyl-5-[2-(trifluoromethyl)phenyl]-1H-pyrazol-3-yl}formamido)-5-(morpholin-4-yl)pentanamide]",68
75,"O=C(O)C[C@H](CCN1C[C@@H](F)[C@H](F)C1)NC(=O)c1cc(-c2ccccc2C(F)(F)F)n(C2CCCC2)n1 [compound 631, (3S)-3-({1-cyclopentyl-5-[2-(trifluoromethyl)phenyl]-1H-pyrazol-3-yl}formamido)-5-[(3R,4R)-3,4-difluoropyrrolidin-1-yl]pentanoic acid]",
1340,"COc1cccc(OC)c1-c1cc(C(=O)N[C@@H](CCN2CCCCC2)Cc2nccs2)nn1C1CCCC1 [compound 448, 1-cyclopentyl-5-(2,6-dimethoxyphenyl)-N-[(2S)-4-(piperidin-1-yl)-1-(1,3-thiazol-2-yl)butan-2-yl]-1H-pyrazole-3-carboxamide]",
161,"CN(C(=O)C[C@H](CCN1CCCC[C@@H]1C(F)(F)F)NC(=O)c1cc(-c2ccccc2C(F)(F)F)n(C2CCCC2)n1)c1nccs1 [compound 489, (3S)-3-({1-cyclopentyl-5-[2-(trifluoromethyl)phenyl]-1H-pyrazol-3-yl}formamido)-N-methyl-N-(1,3-thiazol-2-yl)-5-[(2R)-2-(trifluoromethyl)piperidin-1-yl]pentanamide]",
41,"C[C@]1(F)CCCN(CC[C@@H](CC(=O)O)NC(=O)c2cc(-c3ccccc3C(F)(F)F)n(C3CCCC3)n2)C1 [compound 614, (3S)-3-({1-cyclopentyl-5-[2-(trifluoromethyl)phenyl]-1H-pyrazol-3-yl}formamido)-5-[(3S)-3-fluoro-3-methylpiperidin-1-yl]pentanoic acid]",
55,"O=C(O)C[C@H](CCN1C(=O)CCCC1=O)NC(=O)c1cc(-c2ccccc2C(F)(F)F)n(C2CCCC2)n1 [compound 604, (3S)-3-({1-cyclopentyl-5-[2-(trifluoromethyl)phenyl]-1H-pyrazol-3-yl}formamido)-5-(2,6-dioxopiperidin-1-yl)pentanoic acid]",
2830,"COc1cccc(OC)c1-c1cc(C(=O)N[C@@H](CCN2CCCCC2)Cc2nnnn2C)nn1C1CCCC1 [compound 445, 1-cyclopentyl-5-(2,6-dimethoxyphenyl)-N-[(2S)-1-(1-methyl-1H-1,2,3,4-tetrazol-5-yl)-4-(piperidin-1-yl)butan-2-yl)-1H-pyrazole-3-carboxamide]",
> 10000,"CCC(CC)n1nc(C(=O)N(CC)[C@@H](CCN2CCCCC2)CC(=O)NC2CCC2)cc1-c1c(OC)cccc1OC [compound 346, (3S)-N-cyclobutyl-3-{1-[5-(2,6-dimethoxyphenyl)-1-(pentan-3-yl)-1H-pyrazol-3-yl]-N-ethylformamido}-5-(piperidin-1-yl)pentanamide]",
> 10000,"COc1cccc(OC)c1-c1cc(C(=O)N[C@H](CC(=O)O)c2ccccc2)nn1CC(C)C [compound 300, (3R)-3-{[5-(2,6-dimethoxyphenyl)-1-(2-methylpropyl)-1H-pyrazol-3-yl]formamido}-3-phenylpropanoic acid]",
641,O=C(C[C@H](CCN1CCCCC1)NC(=O)c1cc(-c2ccsc2C(F)(F)F)n(C2CCCC2)n1)NC1CCC1 [compound 434],
648,"CC(C[C@@H](CC(=O)O)NC(=O)c1cc(-c2ccccc2C(F)(F)F)n(C2CCCC2)n1)N1CCC(F)(F)C1 (stereo partly drawn) [compound 567, (3S)-3-({1-cyclopentyl-5-[2-(trifluoromethyl)phenyl]-1H-pyrazol-3-yl}formamido)-5-(3,3-difluoropyrrolidin-1-yl)hexanoic acid]",
243,O=C(N[C@@H](CCN1CCCC(F)(F)C1)Cc1nnc(C(F)(F)F)[nH]1)c1cc(-c2ccccc2Cl)n(C2CCCC2)n1 [compound 459],
> 10000,O=C(C[C@H](CCN1CCCCC1)NC(=O)c1cc(-c2c(OCC(F)(F)F)cccc2OCC(F)(F)F)n(C2CCCC2)n1)NC1CCC1 [compound 353],
353,"COc1cccc(OC)c1-c1cc(C(=O)N[C@@H](CCN2CCCCC2)CC(=O)N(C)C2CCC2)nn1C1CCCC1 [compound 331, (3S)-N-cyclobutyl-3-{[1-cyclopentyl-5-(2,6-dimethoxyphenyl)-1H-pyrazol-3-yl]formamido}-N-methyl-5-(piperidin-1-yl)pentanamide]",
59,"O=C(C[C@H](CCN1CCCC1)NC(=O)c1cc(-c2ccccc2C(F)(F)F)n(C2CCCC2)n1)NC1CCC1 [compound 504, (3S)-N-cyclobutyl-3-({1-cyclopentyl-5-[2-(trifluoromethyl)phenyl]-1H-pyrazol-3-yl}formamido)-5-(pyrrolidin-1-yl)pentanamide]",
151,"O=C(O)C[C@H](CCN1CCCC(F)(F)C1)NC(=O)c1cc(-c2ccccc2Cl)n(C2CCCC2)n1 [compound 433, (3S)-3-{[5-(2-chlorophenyl)-1-cyclopentyl-1H-pyrazol-3-yl]formamido}-5-(3,3-difluoropiperidin-1-yl)pentanoic acid]",
271,"O=C(C[C@H](CCN1CCCCC1)NC(=O)c1cc(-c2ccccc2OC(F)(F)F)n(C2CCCC2)n1)NC1CCC1 [compound 359, (3S)-N-cyclobutyl-3-({1-cyclopentyl-5-[2-(trifluoromethoxy)phenyl]-1H-pyrazol-3-yl]formamido)-5-(piperidin-1-yl)pentanamide]",
> 10000,"O=C(O)C[C@H](CN1CCCC(F)(F)C1)NC(=O)c1cc(-c2ccccc2C(F)(F)F)n(C2CCCC2)n1 [compound 519, (3R)-3-({1-cyclopentyl-5-[2-(trifluoromethyl)phenyl]-1H-pyrazol-3-yl]formamido)-4-(3,3-difluoropiperidin-1-yl)butanoic acid]",
171,CC(F)(F)c1ccccc1-c1cc(C(=O)N[C@@H](CCN2CC(F)(F)C2)CC(=O)O)nn1C1CCCC1 [compound 589],
140,CC(C[C@@H](CC(=O)O)NC(=O)c1cc(-c2ccccc2C(C)(F)F)n(C2CCCC2)n1)N1C[C@H](F)[C@@H](F)C1 (some centres unmarked) [compound 595],
8.5,"O=C(C[C@H](CCN1CCCC(F)(F)C1)NC(=O)c1cc(-c2ccccc2C(F)(F)F)n(C2CCCC2)n1)Nc1ncco1 [compound 427, (3S)-3-({1-cyclopentyl-5-[2-(trifluoromethyl)phenyl]-1H-pyrazol-3-yl}formamido)-5-(3,3-difluoropiperidin-1-yl)-N-(1,3-oxazol-2-yl)pentanamide]",
39,"O=C(C[C@H](CCNC(=O)C1CCCC1)NC(=O)c1cc(-c2ccccc2C(F)(F)F)n(C2CCCC2)n1)NC1CCC1 [compound 536, (3S)-N-cyclobutyl-3-({1-cyclopentyl-5-[2-(trifluoromethyl)phenyl]-1H-pyrazol-3-yl}formamido)-5-(cyclopentylformamido)pentanamide]",
920,"O=C(C[C@H](CCN1CCC(F)(F)CC1)NC(=O)c1cc(-c2ccccc2C(F)(F)F)n(C2CCCC2)n1)NCc1ccccc1 [compound 439, (3S)-N-benzyl-3-({1-cyclopentyl-5-[2-(trifluoromethyl)phenyl]-1H-pyrazol-3-yl}formamido)-5-(4,4-difluoropiperidin-1-yl)pentanamide]",
> 10000,"O=C(N[C@@H]1CC(=O)N(c2ccc(F)cc2)C1=O)c1cc(-c2ccccc2C(F)(F)F)n(C2CCCC2)n1 [compound 563, 1-cyclopentyl-N-[(3R)-1-(4-fluorophenyl)-2,5-dioxopyrrolidin-3-yl]-5-[2-(trifluoromethyl)phenyl]-1H-pyrazole-3-carboxamide]",
114,"O=C(C[C@H](COc1ccc(F)cc1)NC(=O)c1cc(-c2ccccc2C(F)(F)F)n(C2CCCC2)n1)NC1CCC1 [compound 546, (3R)-N-cyclobutyl-3-({1-cyclopentyl-5-[2-(trifluoromethyl)phenyl]-1H-pyrazol-3-yl}formamido)-4-(4-fluorophenoxy)butanamide]",
> 10000,"O=C(O)C[C@H](CN1CCC(F)(F)C1)NC(=O)c1cc(-c2ccccc2C(F)(F)F)n(C2CCCC2)n1 [compound 518, (3R)-3-({1-cyclopentyl-5-[2-(trifluoromethyl)phenyl]-1H-pyrazol-3-yl}formamido)-4-(3,3-difluoropyrrolidin-1-yl)butanoic acid]",
77,"Cc1cc(C)n(CC[C@@H](CC(=O)N(C)c2nccs2)NC(=O)c2cc(-c3ccccc3C(F)(F)F)n(C3CCCC3)n2)n1 [compound 502, (3S)-3-({1-cyclopentyl-5-[2-(trifluoromethyl)phenyl]-1H-pyrazol-3-yl}formamido)-5-(3,5-dimethyl-1H-pyrazol-1-yl)-N-methyl-N-(1,3-thiazol-2-yl)pentanamide]",
2190,"O=C(C[C@H](CCc1ccc(F)cc1)NC(=O)c1cc(-c2ccccc2C(F)(F)F)n(C2CCCC2)n1)NN1CCCC1 [compound 510, (3S)-3-({1-cyclopentyl-5-[2-(trifluoromethyl)phenyl]-1H-pyrazol-3-yl}formamido)-5-(4-fluorophenyl)-N-(pyrrolidin-1-yl)pentanamide]",
1320,"O=C(C[C@H](CCN1CCCC(F)(F)C1)NC(=O)c1cc(-c2ccncc2Cl)n(C2CCCC2)n1)NC1CCC1 [compound 457, (3S)-3-{[5-(3-chloropyridin-4-yl)-1-cyclopentyl-1H-pyrazol-3-yl]formamidol}-N-cyclobutyl-5-(3,3-difluoropiperidin-1-yl)pentanamide]",
